“And” between values parts separate entries of the source, which are not always exact repeats. Identical values can stand only once.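 Compound exposure: 48 hours, 5 concentrations, 96-well plates. GI50: concentration for 50% inhibition of growth. TGI is the concentration that stops growth completely.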
Legend:
Assay in all cases: growth of human tumour cells (NCI), 48 h
[1] = test system: OVCAR-5 ovarian
[2] = test system: MALME-3M melanoma
[3] = test system: HCT-116 colon
[4] = test system: SN12C renal
[5] = test system: SK-OV-3 ovarian
[6] = test system: SK-MEL-28 melanoma
[7] = test system: A549 NSCLC
[8] = test system: MDA-MB-435
[9] = test system: SW-620 colon
[10] = test system: U251 CNS
[11] = test system: HT29 colon
[12] = test system: CCRF-CEM leukemia
[13] = test system: KM12 colon
[14] = test system: MDA-MB-231 breast
[15] = test system: SF-295 CNS
[16] = test system: SK-MEL-2 melanoma
[17] = test system: NCI-H23 lung
[18] = test system: RXF 393 renal
[19] = test system: NCI/ADR-RES ovarian
[20] = test system: HS 578T breast
[21] = test system: OVCAR-8 ovarian
[22] = test system: A498 renal
[23] = test system: SK-MEL-5 melanoma
[24] = test system: MOLT-4 leukemia
[25] = test system: COLO 205 colon
[26] = test system: LOX IMVI melanoma
[27] = test system: PC-3 prostate
[28] = test system: BT-549 breast
[29] = test system: HOP-92 NSCLC

O=C(c1ccc(/C=C/c2n[nH]c3ccccc23)cc1)N1CCNCC1
GI50 [1]: > 10 µM and 2.51 µM | TGI [1]: > 10 µM and 26.1 µM | GI50 [2]: 1.52 µM and 1.16 µM | TGI [2]: 3.09 µM and 9.38 µM | GI50 [3]: 1.5 µM and 2.02 µM | TGI [3]: 2.88 µM and 20.9 µM | GI50 [4]: > 10 µM and 2.43 µM | TGI [4]: > 10 µM and 19.4 µM | GI50 [5]: > 10 µM and 5.15 µM | TGI [5]: > 10 µM and 20.4 µM | GI50 [6]: 1.71 µM and 5.99 µM | TGI [6]: 3.34 µM and 19.8 µM | GI50 [7]: 2.95 µM and 2.57 µM | TGI [7]: > 10 µM and 39.4 µM | GI50 [8]: 1.54 µM and 2.58 µM | TGI [8]: 2.9 µM and 15.5 µM | GI50 [9]: 1.96 µM and 1.47 µM | TGI [9]: 4.14 µM and 10.8 µM | GI50 [10]: 1.81 µM and 12.2 µM | TGI [10]: 3.33 µM and 27.2 µM | GI50 [11]: 2.04 µM and 2.44 µM | TGI [11]: 4.77 µM and 15.3 µM | GI50 [12]: 6.03 µM and 10.4 µM | TGI [12]: > 10 µM and 75.8 µM | TGI [13]: > 10 µM and 5.35 µM | GI50 [14]: 6.04 µM and 3.62 µM | TGI [14]: > 10 µM and 18 µM | GI50 [15]: 3.15 µM and 5.28 µM | TGI [15]: > 10 µM and 21.9 µM | GI50 [16]: 4.53 µM and 6.85 µM | TGI [16]: > 10 µM and 20.5 µM | GI50 [17]: > 10 µM and 2.55 µM | TGI [17]: > 10 µM and 16.9 µM | GI50 [18]: 2.66 µM and 1.99 µM | TGI [18]: > 10 µM and 6.94 µM | GI50 [19]: > 10 µM and 15.8 µM | TGI [19]: > 10 µM and 36.7 µM | GI50 [20]: 1.93 µM and 4.22 µM | TGI [20]: 7.36 µM and 31.7 µM | GI50 [21]: > 10 µM and 14.1 µM | TGI [21]: > 10 µM and 34.4 µM | GI50 [22]: 2 µM and 7.83 µM | TGI [22]: 8.87 µM and 21.5 µM | GI50 [23]: 6.9 µM | TGI [23]: 18.5 µM | GI50 [24]: 2.26 µM and 2.27 µM | TGI [24]: 5.79 µM and 36.3 µM | GI50 [25]: 3.96 µM and 0.598 µM | TGI [25]: > 10 µM and 5.9 µM | GI50 [26]: 1.76 µM and 2.34 µM | TGI [26]: 3.26 µM and 12.2 µM | GI50 [27]: 5.02 µM and 3.12 µM | TGI [27]: > 10 µM and 35.8 µM | GI50 [28]: 5.58 µM and 4.14 µM | TGI [28]: > 10 µM and 13.6 µM | GI50 [29]: 2.71 µM and 1.89 µM

— PubChem BioAssay (NCI)
